Legend:
Format in all cases: cell-based, mouse
[1] = test system: Fcγ receptor II/III (FcγR); assay: Surface expression of MØ antigens, cytometry: FcγR; details: 5 mM MBCD, 1 hr at 37°
Protocol: For evaluation of phagocytosis, MØ were incubated with 100 μg/ml FITC-chitin particles at 37° C. for 20 or 40 min. Fluorescence of unphagocytosed FITC-chitin was quenched with 50 mM acetate-buffered saline (pH 4.5) containing 2 mg/ml trypan blue, and the fluorescence intensity of MØ with intracellular FITC-chitin particles was measured cytometrically. The presence of intracellular FITC-chitin particles was further confirmed by fluorescence microscopy (Provis AX70 Microscope with MagnaFire, Olympus, Center Valley, Pa.). Expression of F4/80, Mac-1, FcγR, SR-A, TLR4, or MR on MØ was determined cytometrically.
The effect of cholesterol depletion on expression of the selected MØ surface antigens F4/80, Mac-1, FcγR, SR-A, TLR4, and MR was determined. […] The expression of TLR4 and MR were not altered by MBCD. The values for mean fluorescence intensity were consistent with the effects of MBCD on the expression of MØ antigens (Table 3). Therefore, MBCD at 5 mM or less was used for further experiments. All studies of chitin stimulation in the presence of MBCD were terminated within 6 h.

COX-2 = COX-2 expression and PGE2 release by MBCD- or saline-treated MØ
RAW 264.7 MØ [2] = assay: TNF-α production by MBCD- or saline-treated MØ (ELISA); details: for increase in TNF-α production in response to chitin particles: 1 mM MBCD
mannose receptor (MR) = assay: Surface expression of MØ antigens, cytometry: MR; details: 5 mM MBCD, 1 hr at 37°; 2nd antibody control 7.0
IL-10 mRNA = IL-10 mRNA expression in RAW264.7 MØ (RT-PCR)
[3] = test system: chitin phagosome-associated p38 and ERK1/2; assay: Phagosomal (chitin particle-associated) MAPK phosphorylation; details: 10, 20 and 40 min
Protocol: FIG. 14 is a series of photographs of gels showing Phagosomal localization of MAPK proteins. MBCD- and saline-treated MØ were stimulated with 100 μg/ml 1-10 μm chitin particles at 37° C. for 10, 20 or 40 min. Chitin particle-associated proteins were isolated and extracted as described in Example 3. Particle-associated proteins derived from 2×10^6 MØ as well as whole cell proteins were separated on SDS-11% polyacrylamide gel and electroblotted to PVDF membrane. The data shown are representative of two independent experiments.
MBCD- or saline-treated MØ (2×10^6/ml) were stimulated with 100 μg/ml 1-10 μm chitin particles at 37° C. for 10, 20, or 40 min, washed with saline, suspended in homogenization buffer (50 mM Tris-HCl, pH 7.5, 0.32 M sucrose, 10 mM NaF, 1 mM Na3VO4, 5 mM EDTA, 1:500 protease inhibitor cocktail [Sigma]), and homogenized by sonication (20 s). […] Total and phosphorylated p38 and ERK1/2 as well as lysosome-associated membrane protein-1 (LAMP-1) were detected by western blotting with specific antibodies as described above. […]
The extent of phosphorylation of MAPK associated with intracellular chitin particles in MBCD-treated and saline-treated MØ was determined. […] MAPKs p38 and ERK1/2 and the respective phosphorylated forms were detected in the particle-associated fractions at 10, 20 and 40 min (FIG. 14). […] Phosphorylated JNK was not detected in the particle-associated fraction.

RAW 264.7 MØ [4] = assay: Cell-surface binding of FITC-chitin particles; details: MBCD-treated vs saline-treated MØ
Protocol: For chitin binding and phagocytosis assays, 1-10 μm chitin particles were labeled with fluorescein isothiocyanate (FITC). Particles (10 mg) and FITC (0.1 mg) were mixed and incubated in 0.1 M NaHCO3 at 22° C. for 2 h. Glycine (final 1 M) was added to bind free FITC, after which labeled particles were washed and suspended in saline at 10 mg/ml. To assess cell-surface binding of chitin, MØ were incubated with 100 μg/ml FITC-chitin particles on ice for 30 min. Free particles were removed by washing three times, and cellular fluorescence was measured cytometrically (BD FACSCalibur system with CELL Quest™ acquisition plus analysis program; Becton-Dickinson Immunocytometry Systems, San Jose, Calif.). To confirm that MØ binding to chitin particles was not altered by FITC, an excess of unlabeled particles (1,000 μg/ml) was used to compete with FITC-chitin.
It was also determined whether cholesterol depletion modifies MØ binding and internalization of FITC-chitin microparticles. […] Internalization of FITC-chitin particles at 37° C. was analyzed following quenching of unphagocytosed FITC-chitin. The magnitude of phagocytosis is similar for MBCD- and saline-treated MØ at 20 min: 12 and 12%, respectively.

Mac-1 = test system: Mac-1
F4/80 = assay: Surface expression of MØ antigens, cytometry: F4/80; details: 5 mM MBCD, 1 hr at 37°
[5] = test system: Toll-like receptor 4 (TLR4); assay: Surface expression of MØ antigens, cytometry: TLR4; details: 5 mM MBCD, 1 hr at 37°; 2nd antibody control 7.0
[6] = test system: scavenger receptor A (SR-A); assay: Surface expression of MØ antigens, cytometry: SR-A; details: 5 mM MBCD, 1 hr at 37°

Mac-1, sequence (P05555 17-1153): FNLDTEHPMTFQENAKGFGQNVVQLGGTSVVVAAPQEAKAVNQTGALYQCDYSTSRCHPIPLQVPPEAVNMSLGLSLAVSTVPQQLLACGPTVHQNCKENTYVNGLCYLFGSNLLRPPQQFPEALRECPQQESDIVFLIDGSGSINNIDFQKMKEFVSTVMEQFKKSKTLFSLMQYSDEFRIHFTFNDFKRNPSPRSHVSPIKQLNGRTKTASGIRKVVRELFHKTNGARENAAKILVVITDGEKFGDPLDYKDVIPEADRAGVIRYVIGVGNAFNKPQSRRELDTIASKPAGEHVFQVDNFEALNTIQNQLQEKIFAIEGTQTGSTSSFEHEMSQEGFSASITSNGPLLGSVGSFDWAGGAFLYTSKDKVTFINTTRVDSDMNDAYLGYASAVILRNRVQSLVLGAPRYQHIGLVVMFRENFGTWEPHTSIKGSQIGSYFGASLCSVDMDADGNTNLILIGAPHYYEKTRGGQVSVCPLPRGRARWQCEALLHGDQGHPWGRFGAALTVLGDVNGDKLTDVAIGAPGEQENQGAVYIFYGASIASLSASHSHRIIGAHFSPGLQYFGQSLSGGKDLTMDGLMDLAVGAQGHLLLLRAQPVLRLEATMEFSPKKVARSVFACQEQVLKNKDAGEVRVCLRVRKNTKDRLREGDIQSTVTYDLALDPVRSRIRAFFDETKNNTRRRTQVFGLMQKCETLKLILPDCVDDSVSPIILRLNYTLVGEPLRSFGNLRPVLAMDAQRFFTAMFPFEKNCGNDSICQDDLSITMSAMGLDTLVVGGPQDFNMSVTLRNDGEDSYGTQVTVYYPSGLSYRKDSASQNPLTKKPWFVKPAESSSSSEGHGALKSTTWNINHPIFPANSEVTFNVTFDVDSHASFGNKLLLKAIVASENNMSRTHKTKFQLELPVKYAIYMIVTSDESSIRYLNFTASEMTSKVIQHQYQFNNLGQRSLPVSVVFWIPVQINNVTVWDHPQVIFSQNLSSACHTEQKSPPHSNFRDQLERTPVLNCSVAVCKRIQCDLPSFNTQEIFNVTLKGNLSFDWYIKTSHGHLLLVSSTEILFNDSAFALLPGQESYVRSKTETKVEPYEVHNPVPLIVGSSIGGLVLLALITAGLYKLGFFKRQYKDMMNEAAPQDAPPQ

Substance: methyl-β-cyclodextrin [MBCD]
- % positive cells in M1, FcγR [1]: 65%
- MFI, FcγR ([1]; 2nd antibody control 7.0): 14
- CpG-ODN-induced COX-2 expression or PGE2 release (COX-2; 1 mM MBCD): did not enhance
- COX-2 expression, MBCD alone (COX-2; 5 mM MBCD): induced
- PGE2 release vs MØ treated with saline (COX-2; 5 mM MBCD): not different
- increase in TNF-α production in response to chitin particles (RAW 264.7 MØ [2]; 20 μg/ml chitin particles): 3 fold
- increase in TNF-α production in response to chitin particles (RAW 264.7 MØ [2]; 100 μg/ml chitin particles): 1.8 fold
- TNF-α production, MBCD alone (RAW 264.7 MØ [2]; 5 mM MBCD): enhanced slightly but significantly
- MFI, MR (mannose receptor (MR)): 73
- CpG-ODN-induced IL-10 mRNA after MBCD treatment (IL-10 mRNA): not increased
- chitin particle-induced IL-10 mRNA expression after MBCD treatment (IL-10 mRNA; 6 h): did not result in IL-10 mRNA expression
- relative amounts of chitin-associated phosphorylated MAPK, MBCD- vs saline-treated cells (FIG. 14) [3]: greater
- effect of MBCD treatment on MØ binding to FITC-chitin particles (RAW 264.7 MØ [4]): not significantly altered
- % positive cells in M1, Mac-1 (Mac-1): 81%
- MFI, Mac-1 (Mac-1): 36
- % positive cells in M1, F4/80 (F4/80): 69%
- MFI, F4/80 (F4/80; 2nd antibody control 7.0): 17
- MFI, TLR4 [5]: 23
- % positive cells in M1, SR-A [6]: 81%
- MFI, SR-A ([6]; 2nd antibody control 7.0): 32

Reference: patent publication US20090324624A1, “Chitin micro-particles as an adjuvant” (priority 2006, published 2009)
